Counter-ions that a name gives are not always drawn. Like-named read-outs stand apart in the source and are kept apart here. Starred links: 1 amine or outer side, 2 acyl side, 3 side chain; linkers in the order of their positions; H or OH if unused. Positions of bridges follow the written chain, without caps; N, C: chain ends. Non-standard residues stand in square brackets, D forms with d. Residues, ends and D or L forms follow the SMILES beside them. Chains are numbered I, II in the order given. Actinocin(9to1) = Cc1c2oc3c(C)ccc(C(=O)[*:1])c3nc-2c(C(=O)[*:2])c(N)c1=O; NMeV = CN[C@H](C(=O)O)C(C)C; Sar = CNCC(=O)O
Tests used:
[1] = system: HT-29 tumoroids; test: CellTiter-Glo viability, tumoroids on 3D fibrous scaffold; details: scaffold culture; nine drugs at 0.1-20 μM, 72 hours
Method: HT-29 cells were cultured in the 3D fibrous scaffold from day 1 to day 7, at which point the nine FDA-approved anticancer drugs were individually added to the cells at concentrations of 0.1, 1, 10, and 20 μM. The cells were incubated for an additional 72 hours, at which point viability of the cells was quantitated using Celltiter-Glo assay (Promega) according to the manufacturer's protocol. Raw luminescence values of the treated groups were normalized to the average of the untreated controls and graphed in GraphPad Prism.
HT-29 cells were either grown in the standard 2-dimensional (2D) monolayer culture or in a 3-dimensional (3D) culture system using a novel fibrous scaffold. […] The monolayer cells and the 3D tumoroids were independently treated with increasing concentrations of nine FDA approved anti-cancer drugs. After 72 hours post-treatment a Presto Blue Cell Viability Assay (for monolayer) and CellTiter-Glo Viability Assay (for tumoroids) were used to quantitate the drug-induced cell death. The drug treated viability readings were normalized to the viability readings from untreated control.

[2] = system: HT-29 cells; test: Presto Blue cell viability, 2D monolayer; details: monolayer culture; nine drugs at 0.1-20 μM, 72 hours
Method: HT-29 cells were cultured in 2D monolayer for 24 hours. After 24 hours, the nine FDA-approved anticancer drugs were individually added to the cells at concentrations of 0.1, 1, 10, and 20 μM, and the cells were incubated for 72 hours, at which point viability of the cells was quantitated using Presto Blue assay (Life Technologies) according to the manufacturer's protocol. Raw fluorescence values of the treated groups were normalized to the average of the control and graphed in GraphPad Prism.
HT-29 cells were cultured in 2D monolayer for 24 hours. After 24 hours, the nine FDA-approved anticancer drugs were individually added to the cells at concentrations of 0.1, 1, 10, and 20 μM, and the cells were incubated for 72 hours, at which point viability of the cells was quantitated using Presto Blue assay (Life Technologies) according to the manufacturer's protocol. Raw fluorescence values of the treated groups were normalized to the average of the untreated controls and graphed in GraphPad Prism.
HT-29 cells were either grown in the standard 2-dimensional (2D) monolayer culture or in a 3-dimensional (3D) culture system using a novel fibrous scaffold. […] The monolayer cells and the 3D tumoroids were independently treated with increasing concentrations of nine FDA approved anti-cancer drugs. After 72 hours post-treatment a Presto Blue Cell Viability Assay (for monolayer) and CellTiter-Glo Viability Assay (for tumoroids) were used to quantitate the drug-induced cell death. The drug treated viability readings were normalized to the viability readings from untreated control. The percent viability was used to calculate the IC50 values of all the nine drugs in HT-29 cells.

[3] = system: MDA-MB-231 cells; test: Presto-blue cell viability, breast cancer cell panel; details: read-out: MDA-MB-231 (IC50); Table 1, validation of hits in breast cancer cell panel
Method: (§4) All different cell lines were cultured either in regular 96 wells plate without scaffold (served as monolayer) and with FiSS (scaffold culture) in complete medium. For scaffold culture, 75% medium was carefully removed and replaced with 150 μl of fresh medium every alternate day. After five/six days of scaffold culture, cells were stained with NucBlue (Fisher Scientific) to check if tumoroids had formed. Drugs were added in triplicates with varying concentrations. The cells were incubated for 72 hrs in a humidified atmosphere under 5% CO2 at 37° C., then cell viability was measured using Presto-blue (Fisher Scientific).

[4] = system: MCF-7 cells; test: Presto-blue cell viability, monolayer culture; details: for potency in high throughput screening: NCI Oncology set, 4 point log-dose 0.1 to 100 μM, 72 hrs
Method: (§5) (B) MCF-7 and MCF-7/dox cells were cultured on or on scaffold for 6 days and then cells were treated with increasing concentration of Doxorubicin. Forty-eight hrs post-treatment, cell viability was analyzed using presto-blue as per manufacturer's instructions. The % cell death was analyzed and the IC50 calculated using Graph Pad Prism. Data are represented as Mean±SEM of three independent experiments performed in triplicates (*p<0.05).
(§6) (A) MCF-7 and (B) MCF-7/dox cells were cultured on monolayer and then treated with increasing concentration of compounds from NCI Approved Oncology Drugs Set VII. Forty-eight hrs post-treatment, cell viability was analyzed using presto-blue as per manufacturer's instructions. The % cell death was analyzed and the IC50 calculated using Graph Pad Prism. Data are represented as Mean of experiments performed in triplicates.
(§7) To conduct a high through put screening for compounds that induce cell death in breast cancer, the FDA-approved Oncology Diversity set was obtained from NCI in 96 well plate format with each well containing 20 μl of 10 mM drug stock. All different cell lines were cultured either in regular 96 wells plate without scaffold (served as monolayer) and with FiSS (scaffold culture) in complete medium. […] Drugs were added in triplicates with varying concentrations. The cells were incubated for 72 hrs in a humidified atmosphere under 5% CO2 at 37° C., then cell viability was measured using Presto-blue (Fisher Scientific). […] MCF-7 ad MCF-7/dox were used in a monolayer in a 96 well plate, and then treated with a NCI Oncology diversity set containing FDA-approved anti-cancer drugs. Each drug was used in a 4 point log-dose from 0.1 to 100 μM. Untreated cells were used as control and the cell death was estimated at the end of 72 hrs post-treatment.

[5] = system: MCF-7 tumoroids; test: Presto-blue cell viability, tumoroids on FiSS scaffold
Method: (§8) (A) MCF-7 and MCF-7/dox cells were cultured on the scaffold for 6 days and then visualized using Nuc-blue. (B) MCF-7 and MCF-7/dox cells were cultured on or on scaffold for 6 days and then cells were treated with increasing concentration of Doxorubicin. Forty-eight hrs post-treatment, cell viability was analyzed using presto-blue as per manufacturer's instructions. The % cell death was analyzed and the IC50 calculated using Graph Pad Prism. Data are represented as Mean±SEM of three independent experiments performed in triplicates (*p<0.05).
(§9) MCF-7 and MCF-7/dox cells were cultured on monolayer or on scaffold in normoxia or hypoxia for 6 days. At the end of culture period, the monolayer cells and tumoroids were treated with increasing concentration of Actinomycin D. Forty-eight hrs post-treatment, cell viability was analyzed using presto-blue as per manufacturer's instructions. The % cell death was analyzed and the IC50 calculated using Graph Pad Prism. Data are represented as Mean±SEM of three independent experiments performed in triplicates (*p<0.05).
(§10) To conduct a high through put screening for compounds that induce cell death in breast cancer, the FDA-approved Oncology Diversity set was obtained from NCI in 96 well plate format with each well containing 20 μl of 10 mM drug stock. All different cell lines were cultured either in regular 96 wells plate without scaffold (served as monolayer) and with FiSS (scaffold culture) in complete medium. For scaffold culture, 75% medium was carefully removed and replaced with 150 μl of fresh medium every alternate day. After five/six days of scaffold culture, cells were stained with NucBlue (Fisher Scientific) to check if tumoroids had formed. Drugs were added in triplicates with varying concentrations. The cells were incubated for 72 hrs in a humidified atmosphere under 5% CO2 at 37° C., then cell viability was measured using Presto-blue (Fisher Scientific).

[6] = system: Sox2 in MCF-7 tumoroids; test: Sox2 expression in tumoroids after drug treatment (western blot / RT-PCR); assay type: cell-based, human
Method: (§1) MCF-7 and MCF-7/dox were allowed to form tumoroids on scaffold for 6 days following which they were exposed to Actinomycin D for 24 hrs. At the end of 24 hrs the tumoroids were dissociated and processed for either western blotting (A) or real-time RT-PCR (B). Sox2 protein and transcript levels were analyzed and normalized to HPRT (C) Second generation MCF-7 tumoroids were cultured in a 96 well plate for 6 days. Tumoroids were treated with increasing concentrations of Actinomycin D on day 4 in groups of 4 wells. After a 48 hr treatment, cell viability was assayed using Cell Titer Glo(Promega) on day 6. Viability was calculated as a percent of control untreated wells and graphed using Graph Pad Prism software. (D) Tumoroids were treated with Actinomycin D for 48 hr. Following treatment tumoroids were dissociated and cells were co-stained using FITC conjugated CD44 antibody and Alexa Fluor-647 conjugated CD24 antibody. CD44^highCD24^low stem-like populations in MCF7 tumoroids were assessed by flow cytometer. Data was collected using a BD FACS Canto 2 flow cytometer.
(§2) MCF-7 and MCF-7/dox cells were seeded as monolayer and 3D tumoroid cultures in 96 well plates. […] Collagenase was used to detach the cells from the plate/scaffold platform. The cell pellet was resuspended in RIPA buffer and vortexed for 30 min followed by centrifugation at 4° C. at 13000 rpm to collect the protein extract. Protein content was determined by using BCA method and followed for western blot procedure. Antibodies for Nanog, Oct 4a, Sox2, and GAPDH/HPRT were obtained from Cell Signaling.
(§3) To determine the effects of Actinomycin D on the Sox2 protein levels in both MCF-7 and MCF-7/dox cell lines, MCF7 wt and MCF7-dox cells were seeded as monolayer and 3D tumoroid cultures (both in controls and cobalt chloride (CoCl2) scaffold cultures) in 96 well plates. […] Collagenase was used to detach the cells from the plate/scaffold platform. The cell pellet was then dissolved in trizol and RNA was isolated. RT-PCR was performed using 2 step process namely 1) cDNA synthesis using DNAase-1 treated RNA and 2) PCR was performed using primers of the gene of interest. […] The decrease in Sox2 expression was 2 fold in both the cell lines tested when compared to the control untreated tumoroids (2.05 vs. 0.75 pixel density in MCF-7 and 1.05 vs. 0.5 pixel density in MCF-7/dox) (FIG. 8B). […] Actinomycin D targets and down-regulates the expression of Sox2 resulting in depletion of stem-like cell population, which hampers the breast cancer cell's ability to initiate spheroids.

[7] = system: Sox2 in MCF-7/dox tumoroids; test: as above; assay type: cell-based, human
Method: as §1, §2, §3

[8] = system: BT474 cells; test: Presto-blue cell viability, breast cancer cell panel; details: read-out: BT474 (IC50); Table 1, validation of hits in breast cancer cell panel
Method: as §4

[9] = system: MCF-7/dox tumoroids; test: Presto-blue cell viability, tumoroids on FiSS scaffold
Method: as §8, §9, §10

[10] = system: CD44highCD24low cells in MCF-7 tumoroids; test: Flow cytometry of CD44highCD24low stem-like population in tumoroids; assay type: cell-based, human; details: 48 hr treatment, compared to untreated controls
Method: as §1
To further investigate the potential of the FiSS for use in cancer drug discovery by characterizing the BCSCs within the tumoroids, MCF-7 cells were seeded onto scaffolds in 6 well plates at 240,000 cells per well. Cells were cultured for 6 days in RPMI media to form primary tumoroids. […]

[11] = system: Second generation MCF-7 tumoroids; test: Cell Titer Glo viability of second generation tumoroids; assay type: cell-based, human; details: 48 hr treatment
Method: as §1

[12] = system: MCF-7/dox cells; test: Presto-blue cell viability, monolayer culture; details: for potency in high throughput screening: NCI Oncology set, 4 point log-dose 0.1 to 100 μM, 72 hrs
Method: as §5, §6, §7

[13] = read-out: MCF7-WT (IC50), Table 1, validation of hits in breast cancer cell panel
[14] = read-out: MCF7-DOX (IC50), Table 1, validation of hits in breast cancer cell panel

For `Nc1nc2nc[nH]c2c(=S)[nH]1` [6-thioguanine], the “rank as inhibitor of HT-29 cell viability” value (“rank as inhibitor” below) [1] was “least potent inhibitors” and the “rank as inhibitor” value [2] was “least potent inhibitors”.
In the case of `Cc1c2oc3c(C)ccc(C(=O)N[C@@H]4C(=O)N[C@H](C(C)C)C(=O)N5CCC[C@H]5C(=O)N(C)CC(=O)N(C)[C@@H](C(C)C)C(=O)O[C@@H]4C)c3nc-2c(C(=O)N[C@@H]2C(=O)N[C@H](C(C)C)C(=O)N3CCC[C@H]3C(=O)N(C)CC(=O)N(C)[C@@H](C(C)C)C(=O)O[C@@H]2C)c(N)c1=O` [Actinomycin D] (I: T[dV]P[Sar][NMeV] / II: T[dV]P[Sar][NMeV]; ester I:1-I:C, II:1-II:C; linker I:N-II:N via Actinocin(9to1)), the IC50 [3] is reported as 30 ± 10 nM, the IC50 ([4]; MCF-7 monolayer, 48 hrs post-treatment, mean±SEM) is reported as 70 ± 6 nM and the “potency in high throughput screening” value ([4]; MCF-7 monolayer) is reported as “high potency”. The IC50 [4, 13] was 50 ± 10 nM, the IC50 ([5]; MCF-7 tumoroids on scaffold, hypoxic conditions (CoCl2)) was 1040 ± 70 nM and the IC50 ([5]; MCF-7 tumoroids on scaffold, normoxia, 6 days culture, 48 hrs treatment) was 780 ± 250 nM. For the same compound, the Sox2 expression ([6]; MCF-7 tumoroids treated 24 hrs at concentration based on IC50, untreated control 2.05) was 0.75 pixel density, the “decrease in Sox2 expression” value ([6]; MCF-7 tumoroids vs control untreated tumoroids) was 2 fold and the Sox2 expression ([7]; MCF-7/dox tumoroids treated 24 hrs at concentration based on IC50, untreated control 1.05) was 0.5 pixel density. The “decrease in Sox2 expression” value ([7]; MCF-7/dox tumoroids vs control untreated tumoroids) was 2 fold, the IC50 [8] was 240 ± 30 nM and the IC50 ([9]; MCF-7/dox tumoroids on scaffold, hypoxic conditions (CoCl2)) was 2240 ± 460 nM. The IC50 ([9]; MCF-7/dox tumoroids on scaffold, normoxia, 6 days culture, 48 hrs treatment) was 1660 ± 60 nM, the CD44highCD24low population [10] was “decreased” and the IC50 [11] was 29 nM. For the same compound, the IC50 ([12]; MCF-7/dox monolayer, 48 hrs post-treatment, mean±SEM) was 37 ± 21 nM, the “potency in high throughput screening” value ([12]; MCF-7/dox monolayer) was “high potency” and the IC50 [12, 14] was 50 ± 18 nM.
`CO[C@@]12[C@H](COC(N)=O)C3=C(C(=O)C(C)=C(N)C3=O)N1C[C@@H]1N[C@@H]12` [Mitomycin C] was tested, and the IC50 [3] was 30 ± 10 nM, the “potency in high throughput screening” value ([4]; MCF-7 monolayer) was “high potency” and the IC50 [4, 13] was 170 ± 60 nM. The IC50 [8] was 30 ± 4 nM, the “potency in high throughput screening” value ([12]; MCF-7/dox monolayer) was “high potency” and the IC50 [12, 14] was 120 ± 10 nM.
For `N.N.[Cl][Pt][Cl]` [cisplatin], the “rank as inhibitor” value [1] was “least potent inhibitors” and the “rank as inhibitor” value [2] was “least potent inhibitors”.
`Nc1ccn([C@@H]2O[C@H](CO)[C@@H](O)[C@@H]2O)c(=O)n1` [cytarabine] was tested, and the “rank as inhibitor” value [1] was “least potent inhibitors” and the “rank as inhibitor” value [2] was “least potent inhibitors”.
In the case of `COc1cccc2c1C(=O)c1c(O)c3c(c(O)c1C2=O)C[C@@](O)(C(C)=O)C[C@@H]3O[C@H]1C[C@H](N)[C@H](O)[C@H](C)O1` [daunorubicin (hydrochloride)], the “rank as inhibitor” value [1] is reported as “most potent inhibitors” and the “rank as inhibitor” value [2] is reported as “most potent inhibitors”.
Compound `COc1cccc2c1C(=O)c1c(O)c3c(c(O)c1C2=O)C[C@@](O)(C(=O)CO)C[C@@H]3O[C@H]1C[C@H](N)[C@H](O)[C@H](C)O1` [doxorubicin] has an IC50 ([4]; Homo sapiens, MCF7, 48 h) of 180 ± 8 nM, an IC50 ([5]; Homo sapiens, MCF7) of 1310 ± 270 nM and an IC50 ([9]; Homo sapiens, MCF7-DOX) of 23100 ± 5350 nM. For the same compound, the IC50 ([12]; Homo sapiens, MCF7-DOX, 48 h) was 4400 ± 280 nM and the “fold more resistant than MCF-7” value ([12]; MCF-7/dox vs MCF-7 in monolayer) was 24 fold.
`COc1cccc2c1C(=O)c1c(O)c3c(c(O)c1C2=O)C[C@@](O)(C(=O)CO)C[C@@H]3O[C@H]1C[C@H](N)[C@@H](O)[C@H](C)O1` [epirubicin (hydrochloride)] was tested, and the “rank as inhibitor” value [1] was “most potent inhibitors” and the “rank as inhibitor” value [2] was “most potent inhibitors”.

Source: patent publication US20190033294A1, “METHODS OF SCREENING DRUGS FOR CANCER TREATMENT USING CELLS GROWN ON A FIBER-INSPIRED SMART SCAFFOLD” (UNIVERSITY OF SOUTH FLORIDA, priority 2016, published 2019)
